Results as given in patent US20060173015A1, “Cyclohexyldiamines as selective alpha 1a/1d adrenoreceptor antagonists for the treatment of benign prostatic hypertrophy and lower urinary tract symptoms” (priority 2004, published 2006).
Where two headings read alike, the source gives them in different places.

Experiments:
α1b-AR = target: T1, α1b-AR (Homo sapiens, UniProt P35368); experiment: α1-Adrenergic receptor radio-ligand (125I-HEAT) binding assay, α1b subtype; conditions: Receptor Binding, Ki α1b-AR, COS-7 cell membranes, 125I-HEAT
T1 sequence (P35368 1-520): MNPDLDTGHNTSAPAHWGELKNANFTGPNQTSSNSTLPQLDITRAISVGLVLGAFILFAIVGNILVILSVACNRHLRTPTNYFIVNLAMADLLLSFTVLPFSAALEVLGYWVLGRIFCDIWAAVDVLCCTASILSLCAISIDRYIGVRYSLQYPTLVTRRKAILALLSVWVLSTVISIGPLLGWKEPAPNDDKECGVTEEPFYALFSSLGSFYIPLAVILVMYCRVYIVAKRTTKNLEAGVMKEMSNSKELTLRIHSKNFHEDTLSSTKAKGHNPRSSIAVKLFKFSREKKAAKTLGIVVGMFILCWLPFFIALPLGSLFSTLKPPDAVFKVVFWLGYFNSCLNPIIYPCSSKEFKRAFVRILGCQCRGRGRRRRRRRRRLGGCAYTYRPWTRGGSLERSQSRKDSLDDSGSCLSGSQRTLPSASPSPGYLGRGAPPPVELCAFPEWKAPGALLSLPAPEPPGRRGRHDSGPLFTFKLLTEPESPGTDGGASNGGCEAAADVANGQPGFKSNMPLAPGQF

α1d-AR = target: T2, α1d-AR (Homo sapiens, UniProt P25100); experiment: α1-Adrenergic receptor radio-ligand (125I-HEAT) binding assay, α1d subtype
T2 construct: expressed in transfected cells; host or cells: COS-7
T2 sequence (P25100 1-572): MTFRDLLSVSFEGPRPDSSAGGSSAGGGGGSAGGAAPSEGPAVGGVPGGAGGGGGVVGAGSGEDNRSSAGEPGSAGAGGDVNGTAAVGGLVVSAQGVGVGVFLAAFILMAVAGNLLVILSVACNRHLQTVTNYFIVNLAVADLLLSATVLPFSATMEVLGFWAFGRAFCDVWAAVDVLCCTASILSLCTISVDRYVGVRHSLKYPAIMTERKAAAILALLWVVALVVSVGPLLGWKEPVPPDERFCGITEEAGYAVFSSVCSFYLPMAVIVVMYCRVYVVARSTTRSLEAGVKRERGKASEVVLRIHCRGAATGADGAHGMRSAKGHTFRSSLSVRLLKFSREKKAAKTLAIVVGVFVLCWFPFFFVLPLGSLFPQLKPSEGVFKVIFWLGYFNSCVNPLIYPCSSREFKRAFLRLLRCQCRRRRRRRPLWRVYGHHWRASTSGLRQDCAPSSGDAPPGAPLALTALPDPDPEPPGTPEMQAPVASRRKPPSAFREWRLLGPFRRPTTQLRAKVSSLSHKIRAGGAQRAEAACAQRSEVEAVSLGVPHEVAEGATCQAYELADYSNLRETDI
Method: α1-Adrenergic Receptor Binding Assay: Preparation of COS Cell Membranes
Membranes were prepared from COS-7 cells that had been transfected with one of the three α1-AR subtypes by the following method. COS cells from ten 100 mm tissue culture plates were scraped into 5 mL TE (50 mM Tris-HCl, 5 mM EDTA, pH 7.4). The cell suspension was disrupted with a Brinkman Polytron, setting 8, for 10 sec. The disrupted cells were centrifuged at 1000×g for 10 min at 4° C. Supernatants were centrifuged at 34,500×g for 20 min at 4° C. The membrane pellets were suspended in 2 mL TNE (50 mM Tris-HCl, 5 mM EDTA, 150 mM NaCl, pH7.4). An aliquot of the membrane suspension was stored at −70° C. until use. The protein concentration was determined using the BioRad DC protein assay kit following membrane solubilization with Triton X-100.
Radio-Ligand Binding Assay
Triplicate determinations of radio-ligand binding in the presence of increasing: concentrations of testing compound were made. The reagents were added to 96-well polypropylene plate wells using the Biomek 1000 robot (Beckman Instruments). […] The plate was incubated at rt for 1 hr. The contents of the wells were filtered through a GF/C membrane Unifilter plate (Packard Instruments) using the Packard Filtermate cell harvester. The filter plates were dried in a vacuum oven for 30 min at 40° C. 25 μL Microscint 20 liquid scintillation fluid (Packard Instuments) was added to each well. The radioactive content was analyzed in the TopCount microplate scintillation counter (Packard Instruments).

[1] = COS-7 cell membranes, 125I-HEAT, read-out: Receptor Binding, Ki α1d-AR
[2] = Receptor Binding, Ki α1d-AR, COS-7 cell membranes, 125I-HEAT

SMILES	Ki (α1b-AR)	Ki (α1d-AR; [1])	Ki (α1d-AR)	Ki (α1d-AR; [2])
CC(C)Oc1ccccc1N1CCN([C@H]2CC[C@@H](NS(=O)(=O)c3cccc(C(F)(F)F)c3)CC2)CC1 [Cpd 2, N-cis-{4-[4-(2-Isopropoxy-phenyl)-piperazin-1-yl]-cyclohexyl}-3-trifluoromethyl-benzenesulfonamide]	276 nM	–	–	–
CC(C)Oc1ccccc1N1CCN([C@H]2CC[C@@H](NS(=O)(=O)c3ccc(S(C)(=O)=O)cc3)CC2)CC1 [Cpd 6, N-cis-{4-[4-(2-Isopropoxy-phenyl)-piperazin-1-yl]-cyclohexyl}-4-methanesulfonyl-benzenesulfonamide]	195 nM	3.4 nM	–	–
COc1ccc(S(=O)(=O)N[C@H]2CC[C@@H](N3CCN(c4ccccc4OC(C)C)CC3)CC2)cc1OC [Cpd 7, N-cis-{4-[4-(2-Isopropoxy-phenyl)-piperazin-1-yl]-cyclohexyl}-3,4-dimethoxy-benzenesulfonamide]	109 nM	–	1 nM	–
COc1ccc(OC)c(S(=O)(=O)N[C@H]2CC[C@@H](N3CCN(c4ccccc4OC(C)C)CC3)CC2)c1 [Cpd 8, N-cis-{4-[4-(2-Isopropoxy-phenyl)-piperazin-1-yl]-cyclohexyl}-2,5-dimethoxy-benzenesulfonamide]	167 nM	–	–	9.6 nM
CC(C)Oc1ccccc1N1CCN([C@H]2CC[C@@H](NS(=O)(=O)c3cccc(C(F)(F)F)c3)CC2)CC1 [Cpd 16, N-cis-{4-[4-(2-Isopropoxy-phenyl)-piperazin-1-yl]-cyclohexyl}-3-trifluoromethyl-benzenesulfonamide]	222 nM	–	–	–
CC(C)Oc1ccccc1N1CCN([C@H]2CC[C@@H](NS(=O)(=O)c3ccccc3F)CC2)CC1 [Cpd 21, 2-Fluoro-N-cis-{4-[4-(2-isopropoxy-phenyl)-piperazin-1-yl]-cyclohexyl}-benzenesulfonamide]	103 nM	–	–	2.7 nM
CC(C)Oc1ccccc1N1CCN([C@H]2CC[C@@H](NS(=O)(=O)c3cccc(Cl)c3F)CC2)CC1 [Cpd 23, 3-Chloro-2-fluoro-N-cis-{4-[4-(2-isopropoxy-phenyl)-piperazin-1-yl]-cyclohexyl}-benzenesulfonamide]	195 nM	3 nM	–	–
CC(C)Oc1ccccc1N1CCN([C@H]2CC[C@@H](NS(=O)(=O)c3ccc(Cl)cc3F)CC2)CC1 [Cpd 24, 4-Chloro-2-fluoro-N-cis-{4-[4-(2-isopropoxy-phenyl)-piperazin-1-yl]-cyclohexyl}-benzenesulfonamide]	101 nM	–	1.5 nM	–
CC(C)Oc1ccccc1N1CCN([C@H]2CC[C@@H](NS(=O)(=O)c3ccccc3C#N)CC2)CC1 [Cpd 27, 2-Cyano-N-cis-{4-[4-(2-isopropoxy-phenyl)-piperazin-1-yl]-cyclohexyl}-benzenesulfonamide]	217 nM	6.3 nM	–	–
COc1ccc(Br)cc1S(=O)(=O)N[C@H]1CC[C@@H](N2CCN(c3ccccc3OC(C)C)CC2)CC1 [Cpd 28, 5-Bromo-N-cis-{4-[4-(2-isopropoxy-phenyl)-piperazin-1-yl]-cyclohexyl}-2-methoxy-benzenesulfonamide]	42 nM	0.8 nM	–	–
CC(C)Oc1ccccc1N1CCN([C@H]2CC[C@H](NS(=O)(=O)c3cccc(C(F)(F)F)c3)CC2)CC1 [Cpd 30, N-trans-{4-[4-(2-Isopropoxy-phenyl)-piperazin-1-yl]-cyclohexyl}-3-trifluoromethyl-benzenesulfonamide]	204 nM	–	–	49 nM
CC(C)Oc1ccccc1N1CCN([C@H]2CC[C@H](NS(=O)(=O)c3ccc(S(C)(=O)=O)cc3)CC2)CC1 [Cpd 34, N-trans-{4-[4-(2-Isopropoxy-phenyl)-piperazin-1-yl]-cyclohexyl}-4-methanesulfonyl-benzenesulfonamide]	392 nM	22 nM	–	–
COc1ccc(S(=O)(=O)N[C@H]2CC[C@H](N3CCN(c4ccccc4OC(C)C)CC3)CC2)cc1OC [Cpd 35, N-trans-{4-[4-(2-Isopropoxy-phenyl)-piperazin-1-yl]-cyclohexyl}-3,4-dimethoxy-benzenesulfonamide]	126 nM	–	24 nM	–
COc1ccc(OC)c(S(=O)(=O)N[C@H]2CC[C@H](N3CCN(c4ccccc4OC(C)C)CC3)CC2)c1 [Cpd 36, N-trans-{4-[4-(2-Isopropoxy-phenyl)-piperazin-1-yl]-cyclohexyl}-2,5-dimethoxy-benzenesulfonamide]	424 nM	–	–	56 nM
CC(C)Oc1ccccc1N1CCN([C@H]2CC[C@H](NS(=O)(=O)c3cccc(C(F)(F)F)c3)CC2)CC1 [Cpd 44, N-trans-{4-[4-(2-Isopropoxy-phenyl)-piperazin-1-yl]-cyclohexyl}-3-trifluoromethyl-benzenesulfonamide]	334 nM	–	–	34.7 nM
CC(C)Oc1ccccc1N1CCN([C@H]2CC[C@H](NS(=O)(=O)c3ccccc3F)CC2)CC1 [Cpd 49, 2-Fluoro-N-trans-{4-[4-(2-isopropoxy-phenyl)-piperazin-1-yl]-cyclohexyl}-benzenesulfonamide]	385 nM	–	–	30 nM
CC(C)Oc1ccccc1N1CCN([C@H]2CC[C@H](NS(=O)(=O)c3cccc(Cl)c3F)CC2)CC1 [Cpd 51, 3-Chloro-2-fluoro-N-trans-{4-[4-(2-isopropoxy-phenyl)-piperazin-1-yl]-cyclohexyl}-benzenesulfonamide]	348 nM	24 nM	–	–
CC(C)Oc1ccccc1N1CCN([C@H]2CC[C@H](NS(=O)(=O)c3ccc(Cl)cc3F)CC2)CC1 [Cpd 52, 4-Chloro-2-fluoro-N-trans-{4-[4-(2-isopropoxy-phenyl)-piperazin-1-yl]-cyclohexyl}-benzenesulfonamide]	243 nM	–	19 nM	–
CC(C)Oc1ccccc1N1CCN([C@H]2CC[C@H](NS(=O)(=O)c3ccccc3C#N)CC2)CC1 [Cpd 55, 2-Cyano-N-trans-{4-[4-(2-isopropoxy-phenyl)-piperazin-1-yl]-cyclohexyl}-benzenesulfonamide]	31 nM	3.2 nM	–	–
COc1ccc(Br)cc1S(=O)(=O)N[C@H]1CC[C@H](N2CCN(c3ccccc3OC(C)C)CC2)CC1 [Cpd 56, 5-Bromo-N-trans-{4-[4-(2-isopropoxy-phenyl)-piperazin-1-yl]-cyclohexyl}-2-methoxy-benzenesulfonamide]	131 nM	38 nM	–	–
